Laboratory results taken from patent US10106558B2, “Azolobenzazine compounds, compositions comprising these compounds and their use for controlling invertebrate pests” (BASF SE, priority 2015, dated 2018).

Columns and labels:
Type in all cases: in vivo
[1] = tested on: yellow fever mosquito (Aedes aegypti); experiment: whole plant or invertebrate; details: 48 h, larval mortality visually assessed after 2 days, read-out: mortality in comparison with untreated controls
Outline: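 Freshly hatched larvae (5-15 per well) held in 200 μl tap water; compounds formulated in 25% DMSO/water and 2.5 μl sprayed at several concentrations, two replicates. Plates kept 2 days at 28 °C, 80% RH, then larval mortality scored visually.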

[2] = tested on: boll weevil (Anthonomus grandis); experiment: Action on boll weevil, eggs on insect diet in 96-well microtiter plates; details: 120 h, 800 ppm, egg and larval mortality visually assessed after 5 days, read-out: mortality in comparison with untreated controls
Outline: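 Diet in 96-well plates was infested with 5-10 A. grandis eggs and sprayed with compounds formulated in 75% water/25% DMSO, at several concentrations, in two replicates. Plates were held 5 days at about 25±1 °C and 75±5% RH. Egg and larval mortality was then scored visually.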

[3] = tested on: Mediterranean fruitfly (Ceratitis capitata); experiment: Action on Mediterranean fruitfly, eggs on insect diet in microtiter plates; details: 120 h, egg and larval mortality visually assessed after 5 days, read-out: mortality in comparison with untreated controls
Outline: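 Microtiter plates held insect diet plus 50-80 C. capitata eggs; compounds in 75% water/25% DMSO were sprayed onto the diet at several concentrations, two replicates. Plates were kept at about […] and […] relative humidity for 5 days, then egg and larval mortality was scored visually.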

[4] = tested on: tobacco budworm (Heliothis virescens); experiment: Action on tobacco budworm, eggs on insect diet in 96-well microtiter plates; details: 120 h, egg and larval mortality visually assessed after 5 days, read-out: mortality in comparison with untreated controls
Outline: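 Compounds in 25% DMSO/water sprayed (10 μl) onto insect diet holding 15–25 H. virescens eggs, two replicates at several concentrations. Held 5 days at about 28±1 °C, 80±5% RH. Egg and larval mortality scored visually.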

[5] = tested on: vetch aphid (Megoura viciae); experiment: Action on vetch aphid, broad bean leaf disks in 24-well microtiter plates; details: foliar, 120 h, adult aphids on treated leaf disks, 5 days, read-out: mortality in comparison with untreated controls
Procedure: Example B7: Action on Vetch Aphid (Megoura viciae)
For evaluating control of vetch aphid (Megoura viciae) through contact or systemic means the test unit consisted of 24-well-microtiter plates containing broad bean leaf disks.
The compounds were formulated using a solution containing 75% v/v water and 25% v/v DMSO. Different concentrations of formulated compounds were sprayed onto the leaf disks at 2.5 μl, using a custom built micro atomizer, at two replications.
After application, the leaf disks were air-dried and 5-8 adult aphids placed on the leaf disks inside the microtiter plate wells. The aphids were then allowed to suck on the treated leaf disks and incubated at about 23±1° C. and about 50±5% relative humidity for 5 days. Aphid mortality and fecundity was then visually assessed.

[6] = tested on: Diamond Back Moth (Plutella xylostella); experiment: Action on diamond back moth, dipped cabbage leaves; details: 3rd instar larvae, 72 hours after treatment, read-out: mortality in comparison with untreated controls
Outline: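 Cabbage leaves dipped in compound in 1:1 water:acetone with 0.01% (vol/vol) surfactant, air-dried, placed on moist filter paper and infested with ten 3rd-instar larvae. Mortality scored 72 hours after treatment; feeding damage rated on a 0-100% scale.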

[7] = tested on: Southern Armyworm (Spodoptera eridania), 2nd instar larvae; experiment: Action on southern armyworm 2nd instar larvae, sprayed lima bean plants; details: 96 h, 4 days after treatment, read-out: mortality in comparison with untreated controls
Outline: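 Lima bean plants (Sieva, 1st true leaf) sprayed electrostatically with compound in 50% acetone/water plus 0.01% nonionic surfactant, dried, then infested with 10–11 larvae in bags. Held at about 25 °C, 20–40% RH; mortality and reduced feeding scored 4 days after treatment versus untreated plants.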

[8] = tested on: Orchid Thrips (Dichromothrips corbetti); experiment: Action on orchid thrips, floral-immersion technique; details: adult thrips, 72 hours after treatment, read-out: mortality in comparison with untreated controls
Outline: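 Lab-colony adult thrips, about 20 per arena, were exposed to whole orchid flower petals dipped in compound diluted in 1:1 acetone:water with 0.01% v/v Kinetic HV and then dried. Arenas were held under continuous light at about 28 °C. Live thrips were counted after 3 days and percent mortality recorded at 72 h post-treatment.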

[9] = tested on: Silverleaf Whitefly (Bemisia argentifolii) (Adults); experiment: Action on silverleaf whitefly adults, sprayed cotton plants; details: 72 h, 3 days after treatment, read-out: mortality in comparison with untreated controls
Procedure: Example B4: Action on Silverleaf Whitefly (Bemisia argentifolii) (Adults)
The active compounds were formulated by a Tecan liquid handler in 100% cyclohexanone as a 10,000 ppm solution supplied in tubes. The 10,000 ppm solution was serially diluted in 100% cyclohexanone to make interim solutions. These served as stock solutions for which final dilutions were made by the Tecan in 50% acetone:50% water (v/v) into 5 or 10 ml glass vials. A nonionic surfactant (Kinetic®) was included in the solution at a volume of 0.01% (v/v). The vials were then inserted into an automated electrostatic sprayer equipped with an atomizing nozzle for application to plants/insects.
Cotton plants at the cotyledon stage (one plant per pot) were sprayed by an automated electrostatic plant sprayer equipped with an atomizing spray nozzle. The plants were dried in the sprayer fume hood and then removed from the sprayer. Each pot was placed into a plastic cup and about 10 to 12 whitefly adults (approximately 3-5 days old) were introduced. The insects were collected using an aspirator and a nontoxic Tygon® tubing connected to a barrier pipette tip. The tip, containing the collected insects, was then gently inserted into the soil containing the treated plant, allowing insects to crawl out of the tip to reach the foliage for feeding. Cups were covered with a reusable screened lid. Test plants were maintained in a growth room at about 25° C. and about 20-40% relative humidity for 3 days, avoiding direct exposure to fluorescent light (24 hour photoperiod) to prevent trapping of heat inside the cup. Mortality was assessed 3 days after treatment, compared to untreated control plants.

CC(C)c1ccccc1/N=C1\SCC(=O)N1/N=C/c1cc2ccc3c(ncn3-c3ccc(OC(F)(F)F)cc3)c2cn1 [Compound C-28, (2Z)-2-(2-isopropylphenyl)imino-3-[(E)-[3-[4-(trifluoromethoxy)phenyl]imidazo[4,5-h]isoquinolin-7-yl]methyleneamino]thiazolidin-4-one]
≥ 75%: mortality at 800 ppm [1] | mortality at 800 ppm [2] | mortality at 800 ppm [3] | mortality at 800 ppm [4] | mortality at 800 ppm [5] | mortality at 500 ppm [6] | mortality at 500 ppm [7]

CC(C)c1ccccc1N1CCS/C1=N/N=C/c1ccc2c(ccc3c2ncn3-c2ccc(OC(F)(F)F)cc2)n1 [Compound C-21, (E)-3-(2-isopropylphenyl)-N-[(E)-[3-[4-(trifluoromethoxy)phenyl]imidazo[4,5-f]quinolin-7-yl]methyleneamino]thiazolidin-2-imine]
≥ 75%: mortality at 800 ppm [1] | mortality at 500 ppm [8] | mortality at 800 ppm [2] | mortality at 500 ppm [9] | mortality at 800 ppm [3] | mortality at 800 ppm [4] | mortality at 800 ppm [5] | mortality at 500 ppm [6] | mortality at 500 ppm [7]

CC(C)c1ccccc1N1C(=O)CS/C1=N\N=C\c1ccc2c(ccc3c2ncn3-c2ccc(C(F)(F)F)nn2)n1 [Compound C-10, (2Z)-3-(2-isopropylphenyl)-2-[(E)-[3-[6-(trifluoromethyl)pyridazin-3-yl]imidazo[4,5-f]quinolin-7-yl]methylenehydrazono]thiazolidin-4-one]
≥ 75%: mortality at 500 ppm [8] | mortality at 800 ppm [2] | mortality at 500 ppm [9] | mortality at 800 ppm [3] | mortality at 800 ppm [4] | mortality at 800 ppm [5] | mortality at 500 ppm [6] | mortality at 500 ppm [7]
